System: HMCLs
Test: HMCLs response to drug treatment (IC50 at day 4, CellTiter-Glo assay)
Assay type: cell-based, human
Conditions: classification from IC50 at day 4
Description: HMCLs were cultured in RPMI-1640 medium (Gibco, Thermo Fisher Scientific, Waltham, USA) supplemented with 10% fetal bovine serum (Eurobio, Les Ulis, France) and IL-6 (Peprotech, Rocky Hill, USA) for XG cell lines. The inventorsevaluated the sensitivity of HMCLs to lenalidomide and romidepsin (Selleckchem, Houston, USA). The IC50 was determined at day 4 using the CellTiter-Glo assay (Promega, Madison, USA), as previously described. The data represent the mean ± standard deviation of three independent experiments that were carried out on sextuplet culture wells (Figure 6A and 7A).

For `Nc1cccc2c1CN(C1CCC(=O)NC1=O)C2=O` (centres unmarked) [lenalidomide], the “sensitivity of HMCLs to lenalidomide” value (AMO1, JJN3, KMS-12-BM, SKMM2, XG1, XG5, XG7, XG12, XG20 and XG21 HMCLs) was “resistant” and the “sensitivity of HMCLs to lenalidomide” value (OPM2, RPMI8226, XG2, XG6, XG13 and XG19 HMCLs) was “sensitive”.

From patent publication EP3995830A1, “METHOD OF PROGNOSIS OF AN INDIVIDUAL HAVING MULTIPLE MYELOMA TO BE SENSITIVE TO A TREATMENT” (Centre national de la recherche scientifique, priority 2020, dated 2022)
